# Assay results from patent publication US7745604B2, “Upstream control elements of the proopiomelanocortin gene and their use” (Oregon Health & Science University, priority 2001, dated 2010).
# Where “and” joins values, the source holds several entries; their conditions need not be identical. Equal entries are not always repeated. Entries after “also recorded” stand apart in the source; their conditions may differ. Where two headings read alike, the source gives them in different places. Non-standard residues stand in square brackets, D forms with d. No end group written: not given here.
# Tests used:
# [1] = system: non-POMC neurons in the arcuate nucleus; assay: Membrane potential of non-fluorescent (non-POMC) neurons in the ARC; type: cell-based, mouse
# POMC neurons [2] = assay: Whole cell recordings of membrane potential of EGFP-labeled POMC neurons in ARC slices; type: cell-based, mouse
# [3] = system: GABAergic IPSCs in POMC neurons; assay: GABAergic IPSCs recorded in POMC neurons of ARC slices; type: cell-based, mouse
# POMC neurons [4] = assay: Action potential frequency (firing rate) of POMC neurons, whole cell or loose cell-attached recordings; type: cell-based, mouse; details: for increase in frequency of action potentials (firing rate) in POMC neurons: fenfluramine 20 μM, loose-cell-attached, n=3, reversed with washout
# hypothalamic explants = details: Y2A; cited from earlier work
# [5] = system: c-fos expression in the arcuate nucleus; assay: c-fos expression in the lateral arcuate after IP injection, rat; type: in vivo; details: single IP injection
# [6] = system: c-fos expression in the arcuate nucleus; assay: c-fos expression in arcuate nucleus of Pomc-EGFP mice after IP injection; type: in vivo, mouse; details: IP 5 μg/100 g, 2 hours
# Text: Data were obtained from 5 mice in each group. For the Pomc-EGFP mice 5 anatomically matched arcuate nucleus sections (Franklin et al., The Mouse Brain in Stereotaxic Coordinates (Academic Press, San Diego, 1997) were counted from each animal, and images acquired using a Leica TSC confocal microscope (Grove et al., Neuroscience 100:731-40, 2000).
compound,measurement,setting,value
leptin: adipostatic hormone,adjacent non-fluorescent cells with no effect,"[1]; leptin, 13 cells tested",5 and 5 of 13
same,non-POMC ARC neurons depolarized,"[1]; leptin, 13 cells tested",3
same,non-fluorescent ARC neurons hyperpolarized,"[1]; leptin, 13 cells tested",5
same,mean±s.e.m. depolarization,"POMC neurons [2]; 100 nM leptin, n=45",9.7±1.2 mV
same,reversal potential of small inward current causing depolarization,"POMC neurons [2]; leptin 100 nM, slow voltage ramps",approximately −20 mV
same,POMC cells depolarized of cells tested,POMC neurons [2]; leptin 0.1-100 nM,72 of 77
same,depolarization of POMC cells,POMC neurons [2]; leptin 0.1-100 nM,3-30 mV
same,time to depolarization after addition,POMC neurons [2]; leptin 0.1-100 nM,1 to 10 min and 2 to 10 min
same,cells in which IPSCs were still inhibited in the presence of tetrodotoxin (TTX),[3],3 of 5
same,POMC cells with decreased IPSC frequency of cells tested,[3]; leptin 100 nM,5 out of 15
same,effect on frequency of IPSCs in POMC cells,"[3]; leptin 100 nM, FIG. 3d, 5 cells",decreased the frequency of IPSCs
same,decrease of frequency of GABAergic IPSCs,"[3]; leptin 100 nM, in responding cells",25%
same,effect on frequency of action potentials,"POMC neurons [4]; leptin, FIG. 3a, 77 POMC neurons",increases the frequency of action potentials
"N-acetyl (Leu^28, Leu^31) NPY (24-36) [Y2A]",reduction of IPSC frequency,"[3]; Y2A, n=8, P<0.004",44.4±9.3%
same,NPY release from hypothalamic explants,hypothalamic explants,significantly decreased NPY release
same,α-MSH release from hypothalamic explants,hypothalamic explants,increase in α-MSH release
met-enkephalin,effect on membrane potential of POMC neurons,POMC neurons [2],hyperpolarizes POMC neurons
same,effect on spontaneous action potentials of POMC cells,POMC neurons [4],inhibits all action potentials; also recorded: prevented spontaneous action potential generation
PYY3-36,"hyperpolarization of unidentified, presumably NPY-containing, non-POMC neurons","[1]; PYY3-36 25 nM, n=5, P<0.004",5.2±1.16 mV
same,increase in number of cells positive for c-fos vs saline,[5],2 fold
same,POMC neurons depolarized of cells tested,"POMC neurons [2]; PYY3-36, whole cell",19 of the 22
same,increase in number of arcuate cells positive for c-fos vs saline,[6],1.8 fold
same,increase in proportion of POMC neurons that express c-fos vs saline,[6],2.6 fold
same,number of arcuate cells positive for c-fos,"[6]; n=5, P<0.05",250±40
same,increase in frequency of action potentials,"POMC neurons [4]; PYY3-36 10 nM, loose cell-attached, reversible, n=8",5 fold
same,increase in frequency of action potentials over control,"POMC neurons [4]; PYY3-36 10 nM, whole-cell, n=22, P<0.05",93%
picrotoxin,effect on IPSCs,[3],blocked all IPSCs
"Clc1cncc(N2CCNCC2)n1 [MK 212, 6-Chloro-2-(1-piperazinyl)pyrazine]",effect on resting membrane potential of POMC neurons,POMC neurons [2],depolarized POMC neurons
"Ghrelin: known appetite stimulant; agent known to increase feeding, caloric intake, and appetite (GSSFLSPEHQRVQQRKESKKPPAKLQPR; ends and bridges not checked; UniProt Q9UBU3 24-51, looked up)",mean hyperpolarization of POMC neurons,"POMC neurons [2]; Ghrelin 50 nM, three minutes, whole cell, p<0.03",1.47±0.7 mV
same,effect on membrane potential of POMC neurons,"POMC neurons [2]; Ghrelin, whole cell, FIG. 12b, 34 experiments",mildly hyperpolarizes POMC neurons
same,effect on frequency of IPSCs in POMC neurons,"[3]; Ghrelin 50 nM, whole cell",increase in the frequency of IPSCs; also recorded: increases the frequency of spontaneous synaptic GABA release onto POMC neurons
same,decrease of action potential firing rate of POMC neurons,"POMC neurons [4]; Ghrelin 50 nM, loose-cell-attached mode, reverses with washout",50%
"NC1=N[C@H](O)[C@H]2[C@H]3O[C@]4(O)O[C@@H]([C@@H](O)[C@@]2(N1)[C@@H]4O)[C@]3(O)CO [TTX, tetrodotoxin]",effect on large amplitude IPSCs,[3],abolished large IPSCs
CCNC(C)Cc1cccc(C(F)(F)F)c1 (stereo not drawn) [Fenfluramine],effect on membrane potential of POMC neurons,"POMC neurons [2]; fenfluramine, whole cell, dose dependent, n=4-8 per dose",depolarized POMC neurons
same,increase in frequency of action potentials (firing rate) in POMC neurons,POMC neurons [4],two fold increase
same,increase in frequency of action potentials (firing rate) in POMC neurons,POMC neurons [4]; listed as d-FEN,doubling
NCCc1c[nH]c2ccc(O)cc12 [serotonin],effect on resting membrane potential of POMC neurons,"POMC neurons [2]; serotonin receptor agonists bath-applied four minutes, whole cell, n=4-8 per dose",increased the resting membrane potential (depolarized)
NPY,average hyperpolarization of POMC neurons,"POMC neurons [2]; NPY, n=3, all POMC neurons tested",9±6 mV
same,cells in which IPSCs were still inhibited in the presence of tetrodotoxin (TTX),[3],6 of 6
same,decrease of frequency of GABAergic IPSCs,[3]; NPY 100 nM,55%
same,time to decrease of IPSC frequency,[3]; NPY 100 nM,≤ 3 min
same,effect on frequency of mini IPSCs in POMC neurons,"[3]; NPY, FIG. 4a",decreases the frequency of mini IPSCs
D-Trp^8-γMSH (YVMGHFR[dW]DRFG),POMC neurons hyperpolarized of cells tested,POMC neurons [2]; D-Trp8-γMSH 7 nM,9 of 15
same,effect on membrane potential of POMC neurons,"POMC neurons [2]; D-Trp8-γMSH, FIG. 4c",hyperpolarizes POMC neurons
same,POMC neurons with increased IPSC frequency of cells tested,[3]; D-Trp8-γMSH 7 nM,3 of 4
same,effect on frequency of GABAergic IPSCs in POMC neurons,"[3]; D-Trp8-γMSH 7 nM, FIG. 4b",increases the frequency of GABAergic IPSCs
same,effect on frequency of action potentials,POMC neurons [4]; D-Trp8-γMSH 7 nM,decreased the frequency of action potentials
"Clc1cccc(N2CCNCC2)c1 [mCPP, 1-(3-Chlorophenyl)piperazine]",effect on resting membrane potential of POMC neurons,POMC neurons [2],depolarized POMC neurons
